For 2 compounds, Ki results are on record in ChEMBL document CHEMBL1128077, “6,3'-Dinitroflavone, a novel high affinity ligand for the benzodiazepine receptor with potent anxiolytic properties” (Bioorg Med Chem Lett, 1995).

In the assay the target is GABA-A receptor; anion channel. Kind of assay: Inhibition of [3H]flunitrazepam binding to GABA-A central benzodiazepine receptor of bovine cerebral cortical membranes. More on the design: species or system Bos taurus.

As usually defined, the Ki is the dissociation constant of the complex between target and ligand, obtained from inhibition or displacement. A low value points to higher affinity.

Take `O=c1cc(-c2cccc([N+](=O)[O-])c2)oc2ccc([N+](=O)[O-])cc12`: affinity was put at a Ki of 0.012 µM.
For `O=c1cc(-c2ccc([N+](=O)[O-])cc2)oc2ccc([N+](=O)[O-])cc12` the value was 17 µM.
